{"source": "patent US9776997B2", "about": "“3-aryl-substituted imidazo[1,2-A]pyridines and their use” (Bayer Pharma Aktiengesellschaft, priority 2013, dated 2017)", "molecular_target": "T1, recombinant guanylate cyclase reporter cell line (Rattus norvegicus, UniProt P19686+P20595)", "T1 construct": "expressed in transfected cells; host or cells: recombinant reporter cell line", "T1 sequence (P19686 1-690)": "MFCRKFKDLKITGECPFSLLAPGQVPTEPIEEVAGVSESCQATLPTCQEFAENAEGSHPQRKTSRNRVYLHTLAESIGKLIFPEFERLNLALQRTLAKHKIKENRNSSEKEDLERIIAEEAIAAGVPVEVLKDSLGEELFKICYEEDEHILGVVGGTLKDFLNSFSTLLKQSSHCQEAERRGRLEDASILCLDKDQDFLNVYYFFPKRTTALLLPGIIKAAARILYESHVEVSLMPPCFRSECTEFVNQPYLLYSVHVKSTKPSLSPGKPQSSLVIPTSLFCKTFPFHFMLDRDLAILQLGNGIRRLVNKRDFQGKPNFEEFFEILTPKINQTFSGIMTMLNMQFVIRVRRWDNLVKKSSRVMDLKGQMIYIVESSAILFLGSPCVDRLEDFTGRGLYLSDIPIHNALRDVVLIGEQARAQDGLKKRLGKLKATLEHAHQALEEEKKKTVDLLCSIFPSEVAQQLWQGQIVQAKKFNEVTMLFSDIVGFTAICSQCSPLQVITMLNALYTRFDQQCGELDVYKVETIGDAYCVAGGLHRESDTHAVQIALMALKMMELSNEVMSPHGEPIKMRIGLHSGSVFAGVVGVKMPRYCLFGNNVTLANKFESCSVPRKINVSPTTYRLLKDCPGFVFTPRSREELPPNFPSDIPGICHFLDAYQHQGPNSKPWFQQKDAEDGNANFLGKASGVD", "T1 sequence (P20595 1-619)": "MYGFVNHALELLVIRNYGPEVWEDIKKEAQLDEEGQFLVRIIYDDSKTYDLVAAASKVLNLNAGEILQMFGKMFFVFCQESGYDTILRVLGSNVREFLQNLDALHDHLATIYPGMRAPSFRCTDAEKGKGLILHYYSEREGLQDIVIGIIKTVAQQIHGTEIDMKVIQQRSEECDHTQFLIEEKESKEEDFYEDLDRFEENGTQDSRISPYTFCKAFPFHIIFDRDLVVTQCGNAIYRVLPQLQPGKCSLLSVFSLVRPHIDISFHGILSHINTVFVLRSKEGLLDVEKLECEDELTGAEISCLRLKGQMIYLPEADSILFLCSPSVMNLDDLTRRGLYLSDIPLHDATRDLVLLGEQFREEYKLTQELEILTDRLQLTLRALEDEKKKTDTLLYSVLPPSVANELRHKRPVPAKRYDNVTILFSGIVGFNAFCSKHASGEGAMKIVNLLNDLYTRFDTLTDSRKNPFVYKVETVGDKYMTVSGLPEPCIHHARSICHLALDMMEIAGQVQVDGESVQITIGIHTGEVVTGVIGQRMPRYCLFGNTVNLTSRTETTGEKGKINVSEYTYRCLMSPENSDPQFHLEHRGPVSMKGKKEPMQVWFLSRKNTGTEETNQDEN", "test": "Effect on a recombinant guanylate cyclase reporter cell line", "assay_type": "cell-based", "settings": "MEC = minimum effective concentration; in some cases mean values for individual determinations", "procedure": "B-2. Effect on a Recombinant Guanylate Cyclase Reporter Cell Line\nThe cellular effect of the inventive compounds is determined using a recombinant guanylate cyclase reporter cell line, as described in F. Wunder et al., Anal. Biochem. 339, 104-112 (2005).\nRepresentative MEC values (MEC=minimum effective concentration) for the inventive compounds are shown in the table below (in some cases as mean values for individual determinations): […]", "note": "Values joined by “and” are separate entries in the source; they are usually repeats but may differ in a detail not shown here. Equal values may be shown once. Where a name gives a salt, the structure may show the parent alone.", "data": [{"smiles": "Cc1nc2c(OCC3CCCCC3)cccn2c1-c1nnc(C2CC2)o1", "note": "[Example 74]", "values": [{"measurement": "MEC", "value": 3.0, "unit": "µM"}]}, {"smiles": "Cc1cc(OCc2c(F)cccc2F)c2nc(C)c(-c3cncc(C(=O)O)c3)n2c1", "note": "[Example 76, 5-{8-[(2,6-Difluorobenzyl)oxy]-2,6-dimethylimidazo[1,2-a]pyridin-3-yl}nicotinic acid trifluoroacetate]", "values": [{"measurement": "MEC", "value": 3.0, "unit": "µM"}]}, {"smiles": "Cc1cc(OCc2c(F)cccc2F)c2nc(C)c(-c3cncc(C(N)=O)c3)n2c1", "note": "[Example 77, 5-{8-[(2,6-Difluorobenzyl)oxy]-2,6-dimethylimidazo[1,2-a]pyridin-3-yl}nicotinamide]", "values": [{"measurement": "MEC", "value": 0.1, "unit": "µM"}]}, {"smiles": "Cc1cc(OCc2c(F)cccc2F)c2nc(C)c(-c3cncc(C(=O)NC4CC4)c3)n2c1", "note": "[Example 78, N-Cyclopropyl-5-{8-[(2,6-difluorobenzyl)oxy]-2,6-dimethylimidazo[1,2-a]pyridin-3-yl}nicotinamide trifluoroacetate]", "values": [{"measurement": "MEC", "value": 0.1, "unit": "µM"}]}, {"smiles": "Cc1cc(OCc2c(F)cccc2F)c2nc(C)c(-c3nccc(C(N)=O)n3)n2c1", "note": "[Example 80, 2-{8-[(2,6-Difluorobenzyl)oxy]-2,6-dimethylimidazo[1,2-a]pyridin-3-yl}pyrimidine-4-carboxamide trifluoroacetate]", "values": [{"measurement": "MEC", "value": 0.3, "unit": "µM"}]}, {"smiles": "Cc1cc(OCc2c(F)cccc2F)c2nc(C)c(-c3nccc(C(=O)NC4CC4)n3)n2c1", "note": "[Example 81, N-Cyclopropyl-2-{8-[(2,6-difluorobenzyl)oxy]-2,6-dimethylimidazo[1,2-a]pyridin-3-yl}pyrimidine-4-carboxamide trifluoroacetate]", "values": [{"measurement": "MEC", "value": 3.0, "unit": "µM"}]}, {"smiles": "Cc1cc(OCc2c(F)cccc2F)c2nc(C)c(-c3cn[nH]n3)n2c1", "note": "[Example 82, 8-[(2,6-difluorobenzyl)oxy]-2,6-dimethyl-3-(2H-1,2,3-triazol-4-yl)imidazo[1,2-a]pyridine]", "values": [{"measurement": "MEC", "value": 0.1, "unit": "µM"}]}, {"smiles": "Cc1cc(OCc2c(F)cccc2F)c2nc(C)c(-c3cnn(CC(C)(C)N)n3)n2c1", "note": "[Example 83, 1-(4-{8-[(2,6-Difluorobenzyl)oxy]-2,6-dimethylimidazo[1,2-a]pyridin-3-yl}-2H-1,2,3-triazol-2-yl)-2-methylpropan-2-amine]", "values": [{"measurement": "MEC", "value": 0.3, "unit": "µM"}]}, {"smiles": "Cc1cc(OCc2ncccc2F)c2nc(C)c(-c3cn[nH]c3)n2c1", "note": "[Example 84, 8-[(3-fluoropyridin-2-yl)methoxy]-2,6-dimethyl-3-(1H-pyrazol-4-yl)imidazo[1,2-a]pyridine]", "values": [{"measurement": "MEC", "value": 1.0, "unit": "µM"}]}, {"smiles": "Cc1cc(OCc2ncccc2F)c2nc(C)c(-c3cnn(CC(C)(C)N)c3)n2c1", "note": "[Example 85, 1-(4-{8-[(3-Fluoropyridin-2-yl)methoxy]-2,6-dimethylimidazo[1,2-a]pyridin-3-yl}-1H-pyrazol-1-yl)-2-methylpropan-2-amine]", "values": [{"measurement": "MEC", "value": 3.0, "unit": "µM"}]}, {"smiles": "Cc1cc(OCc2c(F)ccc(F)c2F)c2nc(C)c(-c3cn[nH]c3)n2c1", "note": "[Example 86, 2,6-dimethyl-3-(1H-pyrazol-4-yl)-8-[(2,3,6-trifluorobenzyl)oxy]imidazo[1,2-a]pyridine]", "values": [{"measurement": "MEC", "value": 0.03, "unit": "µM"}]}, {"smiles": "Cc1cc(OCc2c(F)ccc(F)c2F)c2nc(C)c(-c3cnn(CC(C)(C)N)c3)n2c1", "note": "[Example 87, 1-(4-{2,6-Dimethyl-8-[(2,3,6-trifluorobenzyl)oxy]imidazopyridin-3-yl}-1H-pyrazol-1-yl)-2-methylpropan-2-amine]", "values": [{"measurement": "MEC", "value": 0.1, "unit": "µM"}]}, {"smiles": "Cc1cc(OCc2c(F)cccc2F)c2nc(C)c(-c3cn[nH]c3)n2c1", "note": "[Example 88, 8-[(2,6-difluorobenzyl)oxy]-2,6-dimethyl-3-(1H-pyrazol-4-yl)imidazo[1,2-a]pyridine]", "values": [{"measurement": "MEC", "value": 0.01, "unit": "µM"}]}, {"smiles": "Cc1cc(OCc2c(F)cccc2F)c2nc(C)c(-c3cnn(CC(C)(C)N)c3)n2c1", "note": "[Example 89, 1-(4-{8-[(2,6-Difluorobenzyl)oxy]-2,6-dimethylimidazo[1,2-a]pyridin-3-yl}-1H-pyrazol-1-yl)-2-methylpropan-2-amine]", "values": [{"measurement": "MEC", "value": 0.03, "unit": "µM"}]}, {"smiles": "Cc1nc2c(OCc3c(F)cccc3F)cccn2c1-c1cnn(CC(C)(C)N)c1", "note": "[Example 90, 1-(4-{8-[(2,6-Difluorobenzyl)oxy]-2-methylimidazo[1,2-a]pyridin-3-yl}-1H-pyrazol-1-yl)-2-methylpropan-2-amine]", "values": [{"measurement": "MEC", "value": 0.3, "unit": "µM"}]}, {"smiles": "Cc1cc(OCc2c(F)cccc2F)c2nc(C)c(-c3cnn(CCO)c3)n2c1", "note": "[Example 91, 2-(4-{8-[(2,6-difluorobenzyl)oxy]-2,6-dimethylimidazo[1,2-a]pyridin-3-yl}-1H-pyrazol-1-yl)ethanol]", "values": [{"measurement": "MEC", "value": 0.1, "unit": "µM"}]}, {"smiles": "Cc1cc(OCc2c(F)cccc2F)c2nc(C)c(-c3cnn(CCN4CCC(F)(F)CC4)c3)n2c1", "note": "[Example 92, 8-[(2,6-Difluorobenzyl)oxy]-3-{1-[2-(4,4-difluoropiperidin-1-yl)ethyl]-1H-pyrazol-4-yl}-2,6-dimethylimidazo[1,2-a]pyridine]", "values": [{"measurement": "MEC", "value": 0.03, "unit": "µM"}]}, {"smiles": "Cc1cc(OCc2c(F)cccc2F)c2nc(C)c(-c3cnn(CCN4CCS(=O)(=O)CC4)c3)n2c1", "note": "[Example 93, 8-[(2,6-Difluorobenzyl)oxy]-3-{1-[2-(1,1-dioxidothiomorpholin-4-yl)ethyl]-1H-pyrazol-4-yl}-2,6-dimethylimidazo[1,2-a]pyridine]", "values": [{"measurement": "MEC", "value": 0.1, "unit": "µM"}]}, {"smiles": "Cc1cc(OCc2c(F)cccc2F)c2nc(C)c(-c3cnn(CCN4CCN(C)CC4)c3)n2c1", "note": "[Example 94, 8-[(2,6-Difluorobenzyl)oxy]-2,6-dimethyl-3-{1-[2-(4-methylpiperazin-1-yl)ethyl]-1H-pyrazol-4-yl}imidazo[1,2-a]pyridine]", "values": [{"measurement": "MEC", "value": 0.3, "unit": "µM"}]}, {"smiles": "Cc1cc(OCc2c(F)cccc2F)c2nc(C)c(-c3cnn(CCN4CC(O)C4)c3)n2c1", "note": "[Example 95, 1-[2-(4-{8-[(2,6-Difluorobenzyl)oxy]-2,6-dimethylimidazo[1,2-a]pyridin-3-yl}-1H-pyrazol-1-yl)ethyl]azetidin-3-ol trifluoroacetate]", "values": [{"measurement": "MEC", "value": 0.3, "unit": "µM"}]}, {"smiles": "Cc1cc(OCc2c(F)cccc2F)c2nc(C)c(-c3cnn(CCS(C)(=O)=O)c3)n2c1", "note": "[Example 96, 8-[(2,6-Difluorobenzyl)oxy]-2,6-dimethyl-3-{1-[2-(methylsulphonyl)ethyl]-1H-pyrazol-4-yl}imidazo[1,2-a]pyridine]", "values": [{"measurement": "MEC", "value": 0.065, "unit": "µM"}]}, {"smiles": "Cc1cc(OCc2c(F)cccc2F)c2nc(C)c(-c3cnn(CCOC(N)=O)c3)n2c1", "note": "[Example 97, 2-(4-{8-[(2,6-Difluorobenzyl)oxy]-2,6-dimethylimidazo[1,2-a]pyridin-3-yl}-1H-pyrazol-1-yl)ethyl carbamate]", "values": [{"measurement": "MEC", "value": 0.3, "unit": "µM"}]}, {"smiles": "Cc1cc(OCc2c(F)cccc2F)c2nc(C)c(-c3cnn(Cc4cc(C)on4)c3)n2c1", "note": "[Example 98, 8-[(2,6-Difluorobenzyl)oxy]-2,6-dimethyl-3-{1-[(5-methyl-1,2-oxazol-3-yl)methyl]-1H-pyrazol-4-yl}imidazo[1,2-a]pyridine]", "values": [{"measurement": "MEC", "value": "0.03 µM and 3.0 µM"}]}, {"smiles": "Cc1cc(OCc2c(F)cccc2F)c2nc(C)c(-c3cnn(CCc4c(C)n[nH]c4C)c3)n2c1", "note": "[Example 99, 8-[(2,6-Difluorobenzyl)oxy]-3-{1-[2-(3,5-dimethyl-1H-pyrazol-4-yl)ethyl]-1H-pyrazol-4-yl}-2,6-dimethylimidazo[1,2-a]pyridine]", "values": [{"measurement": "MEC", "value": "0.03 µM and 0.1 µM"}]}, {"smiles": "Cc1cc(OCc2c(F)cccc2F)c2nc(C)c(-c3cnn(CCCC#N)c3)n2c1", "note": "[Example 100, 4-(4-{8-[(2,6-Difluorobenzyl)oxy]-2,6-dimethylimidazo[1,2-a]pyridin-3-yl}-1H-pyrazol-1-yl)butanonitrile]", "values": [{"measurement": "MEC", "value": 0.03, "unit": "µM"}]}, {"smiles": "Cc1cc(OCc2c(F)cccc2F)c2nc(C)c(-c3cnn(CCCc4nnn[nH]4)c3)n2c1", "note": "[Example 101, 8-[(2,6-Difluorobenzyl)oxy]-2,6-dimethyl-3-{1-[3-(1H-tetrazol-5-yl)propyl]-1H-pyrazol-4-yl}imidazo[1,2-a]pyridine]", "values": [{"measurement": "MEC", "value": 0.1, "unit": "µM"}]}, {"smiles": "COC(=O)CCn1cc(-c2c(C)nc3c(OCc4c(F)cccc4F)cc(C)cn23)cn1", "note": "[Example 102, Methyl 3-(4-{8-[(2,6-difluorobenzyl)oxy]-2,6-dimethylimidazo[1,2-a]pyridin-3-yl}-1H-pyrazol-1-yl)propanoate]", "values": [{"measurement": "MEC", "value": 0.1, "unit": "µM"}]}]}
